From PubChem BioAssay (NCI)
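Test compounds were applied to cells in 96-well plates for 48 hours at 5 doses. TGI: total growth inhibition.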

Columns and labels:
Experiment in all cases: NCI tumour cell line growth inhibition, 48 h
SNB-19 CNS = test system: SNB-19 CNS
K-562 leukemia = test system: K-562 leukemia
XF 498 CNS = test system: XF 498 CNS
KM12 colon = test system: KM12 colon
SF-295 CNS = test system: SF-295 CNS
SK-MEL-5 melanoma = test system: SK-MEL-5 melanoma
UO-31 renal = test system: UO-31 renal
DMS 273 small cell lung = test system: DMS 273 small cell lung
OVCAR-5 ovarian = test system: OVCAR-5 ovarian
UACC-62 melanoma = test system: UACC-62 melanoma
OVCAR-3 ovarian = test system: OVCAR-3 ovarian
HOP-62 NSCLC = test system: HOP-62 NSCLC
HL-60(TB) leukemia = test system: HL-60(TB) leukemia
NCI-H460 lung = test system: NCI-H460 lung
SW-620 colon = test system: SW-620 colon
MALME-3M melanoma = test system: MALME-3M melanoma
NCI-H522 lung = test system: NCI-H522 lung
SNB-75 CNS = test system: SNB-75 CNS
HCT-15 colon = test system: HCT-15 colon
IGROV1 ovarian = test system: IGROV1 ovarian
OVCAR-4 ovarian = test system: OVCAR-4 ovarian
SF-539 CNS = test system: SF-539 CNS
A549 NSCLC = test system: A549 NSCLC
SK-MEL-2 melanoma = test system: SK-MEL-2 melanoma
NCI-H23 lung = test system: NCI-H23 lung
DLD-1 colon = test system: DLD-1 colon
SK-MEL-28 melanoma = test system: SK-MEL-28 melanoma
HT29 colon = test system: HT29 colon
RPMI-8226 leukemia = test system: RPMI-8226 leukemia
MOLT-4 leukemia = test system: MOLT-4 leukemia
NCI-H226 lung = test system: NCI-H226 lung
SR leukemia = test system: SR leukemia
CCRF-CEM leukemia = test system: CCRF-CEM leukemia
HOP-92 NSCLC = test system: HOP-92 NSCLC
SF-268 CNS = test system: SF-268 CNS
KM20L2 colon = test system: KM20L2 colon
M19-MEL melanoma = test system: M19-MEL melanoma
HCT-116 colon = test system: HCT-116 colon
LXFL 529 NSCLC = test system: LXFL 529 NSCLC
HCC-2998 colon = test system: HCC-2998 colon
UACC-257 melanoma = test system: UACC-257 melanoma
M14 melanoma = test system: M14 melanoma
OVCAR-8 ovarian = test system: OVCAR-8 ovarian
ACHN renal = test system: ACHN renal
CAKI-1 renal = test system: CAKI-1 renal
TK-10 renal = test system: TK-10 renal
786-0 renal = test system: 786-0 renal
U251 CNS = test system: U251 CNS
DMS 114 small cell lung = test system: DMS 114 small cell lung
COLO 205 colon = test system: COLO 205 colon
LOX IMVI melanoma = test system: LOX IMVI melanoma
SN12C renal = test system: SN12C renal
SNB-78 CNS = test system: SNB-78 CNS
A498 renal = test system: A498 renal
HOP-18 NSCLC = test system: HOP-18 NSCLC
EKVX NSCLC = test system: EKVX NSCLC
RXF-631 renal = test system: RXF-631 renal
RXF 393 renal = test system: RXF 393 renal

O=C(c1ccccc1)c1c(CC(O)c2ccccc2)n(C(=O)c2ccccc2)c2ccccc12 (stereo not given)
TGI (SNB-19 CNS): > 100 µM
TGI (K-562 leukemia): > 100 µM
TGI (XF 498 CNS): > 100 µM
TGI (KM12 colon): > 100 µM
TGI (SF-295 CNS): > 100 µM
TGI (SK-MEL-5 melanoma): > 100 µM
TGI (UO-31 renal): 60.6 µM
TGI (DMS 273 small cell lung): > 100 µM
TGI (OVCAR-5 ovarian): > 100 µM
TGI (UACC-62 melanoma): > 100 µM
TGI (OVCAR-3 ovarian): > 100 µM
TGI (HOP-62 NSCLC): > 100 µM
TGI (HL-60(TB) leukemia): > 100 µM
TGI (NCI-H460 lung): > 100 µM
TGI (SW-620 colon): > 100 µM
TGI (MALME-3M melanoma): > 100 µM
TGI (NCI-H522 lung): 64.7 µM
TGI (SNB-75 CNS): 58.2 µM
TGI (HCT-15 colon): > 100 µM
TGI (IGROV1 ovarian): > 100 µM
TGI (OVCAR-4 ovarian): > 100 µM
TGI (SF-539 CNS): > 100 µM
TGI (A549 NSCLC): > 100 µM
TGI (SK-MEL-2 melanoma): > 100 µM
TGI (NCI-H23 lung): 69.5 µM
TGI (DLD-1 colon): > 100 µM
TGI (SK-MEL-28 melanoma): > 100 µM
TGI (HT29 colon): > 100 µM
TGI (RPMI-8226 leukemia): > 100 µM
TGI (MOLT-4 leukemia): 54.4 µM
TGI (NCI-H226 lung): > 100 µM
TGI (SR leukemia): 72.8 µM
TGI (CCRF-CEM leukemia): > 100 µM
TGI (HOP-92 NSCLC): 98.9 µM
TGI (SF-268 CNS): > 100 µM
TGI (KM20L2 colon): > 100 µM
TGI (M19-MEL melanoma): > 100 µM
TGI (HCT-116 colon): > 100 µM
TGI (LXFL 529 NSCLC): > 100 µM
TGI (HCC-2998 colon): > 100 µM
TGI (UACC-257 melanoma): > 100 µM
TGI (M14 melanoma): > 100 µM
TGI (OVCAR-8 ovarian): > 100 µM
TGI (ACHN renal): > 100 µM
TGI (CAKI-1 renal): > 100 µM
TGI (TK-10 renal): > 100 µM
TGI (786-0 renal): > 100 µM
TGI (U251 CNS): > 100 µM
TGI (DMS 114 small cell lung): > 100 µM
TGI (COLO 205 colon): > 100 µM

CCOC(=O)C1SC(=Nc2ccc(Cl)cc2C)N=C1C (stereo not given)
TGI (SNB-19 CNS): > 100 µM
TGI (K-562 leukemia): 51.3 µM
TGI (XF 498 CNS): 40 µM
TGI (KM12 colon): 35.1 µM
TGI (SF-295 CNS): 52.9 µM
TGI (LOX IMVI melanoma): 28.2 µM
TGI (SK-MEL-5 melanoma): 29.9 µM
TGI (UO-31 renal): 39.9 µM
TGI (SN12C renal): 41.4 µM
TGI (DMS 273 small cell lung): 66.9 µM
TGI (OVCAR-5 ovarian): 45.9 µM
TGI (SNB-78 CNS): 76.7 µM
TGI (A498 renal): 98.1 µM
TGI (UACC-62 melanoma): 27.9 µM
TGI (OVCAR-3 ovarian): 48.2 µM
TGI (HOP-62 NSCLC): 43.2 µM
TGI (HL-60(TB) leukemia): 27.1 µM
TGI (NCI-H460 lung): 54.2 µM
TGI (SW-620 colon): 53.7 µM
TGI (MALME-3M melanoma): 39.2 µM
TGI (NCI-H522 lung): 27 µM
TGI (SNB-75 CNS): 69.9 µM
TGI (HCT-15 colon): 37.1 µM
TGI (IGROV1 ovarian): 88 µM
TGI (OVCAR-4 ovarian): 56.2 µM
TGI (SF-539 CNS): 34.5 µM
TGI (A549 NSCLC): 86.2 µM
TGI (SK-MEL-2 melanoma): 35.8 µM
TGI (HOP-18 NSCLC): > 100 µM
TGI (NCI-H23 lung): 34.8 µM
TGI (DLD-1 colon): 35.9 µM
TGI (SK-MEL-28 melanoma): 73.5 µM
TGI (HT29 colon): 30.3 µM
TGI (MOLT-4 leukemia): 47.9 µM
TGI (NCI-H226 lung): 63.5 µM
TGI (HOP-92 NSCLC): 30 µM
TGI (SF-268 CNS): 94.5 µM
TGI (EKVX NSCLC): 75.2 µM
TGI (KM20L2 colon): 32.1 µM
TGI (M19-MEL melanoma): 43.7 µM
TGI (HCT-116 colon): 28.4 µM
TGI (LXFL 529 NSCLC): 45.6 µM
TGI (HCC-2998 colon): 47.9 µM
TGI (UACC-257 melanoma): 51.9 µM
TGI (RXF-631 renal): 71.4 µM
TGI (M14 melanoma): 35.3 µM
TGI (OVCAR-8 ovarian): > 100 µM
TGI (ACHN renal): 57.2 µM
TGI (CAKI-1 renal): 79.9 µM
TGI (TK-10 renal): 65.2 µM
TGI (786-0 renal): 32.6 µM
TGI (U251 CNS): 31.6 µM
TGI (DMS 114 small cell lung): 35.3 µM
TGI (COLO 205 colon): 31 µM
TGI (RXF 393 renal): 35.8 µM
